Values joined by “and” are separate entries in the source; they are usually repeats but may differ in a detail not shown here. Identical values can stand only once. Toxic doses and inconclusive results are not listed. Square brackets hold non-standard residues; d marks the D form. Peptide text beside a SMILES is read from it. * marks the point of attachment. ξ: configuration not given here. Cbz = O=C(OCc1ccccc1)*; OBn = c1ccc(CO*)cc1; ξS = NC(CO)C(=O)O
System: P388 leukemia ip, CD2F1 mice, survival T/C
Assay: NCI In Vivo Anticancer Drug Screen. Data for tumor model P388 Leukemia (intraperitoneal) in CD2F1 (CDF1) mice
Settings: endpoint: median survival time, higher = longer survival
How it was run: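 Mice carrying the transplanted tumor received test compound or vehicle. Survival was recorded in each group, and the value is the treated-group measurement divided by that of the vehicle-treated control group.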

[1] = dose: 100.0 mg/kg/injection, schedule: Q04DX003 (ip), vehicle: saline
[2] = dose: 200.0 mg/kg/injection, schedule: Q04DX003 (ip), vehicle: saline
[3] = dose: 25.0 mg/kg/injection, schedule: Q01DX005 (ip), vehicle: Klucel (hydroxypropylcellulose) (HPC)
[4] = dose: 50.0 mg/kg/injection, schedule: Q01DX005 (ip), vehicle: Klucel (hydroxypropylcellulose) (HPC)
[5] = dose: 100.0 mg/kg/injection, schedule: Q01DX005 (ip), vehicle: Klucel (hydroxypropylcellulose) (HPC)
[6] = dose: 60.0 mg/kg/injection, schedule: Q01DX005 (ip), vehicle: saline
[7] = dose: 60.0 mg/kg/injection, schedule: Q01DX005 (ip), vehicle: Klucel (hydroxypropylcellulose) (HPC)
[8] = dose: 120.0 mg/kg/injection, schedule: Q01DX005 (ip), vehicle: Klucel (hydroxypropylcellulose) (HPC)
[9] = dose: 240.0 mg/kg/injection, schedule: Q01DX005 (ip), vehicle: Klucel (hydroxypropylcellulose) (HPC)
[10] = dose: 60.0 mg/kg/injection, schedule: Q01DX005 (ip), vehicle: saline with Tween-80
[11] = dose: 120.0 mg/kg/injection, schedule: Q01DX005 (ip), vehicle: saline with Tween-80
[12] = dose: 240.0 mg/kg/injection, schedule: Q01DX005 (ip), vehicle: saline with Tween-80
[13] = dose: 50.0 mg/kg/injection, schedule: Q01DX009 (ip), vehicle: saline
[14] = dose: 100.0 mg/kg/injection, schedule: Q01DX009 (ip), vehicle: saline
[15] = dose: 200.0 mg/kg/injection, schedule: Q01DX009 (ip), vehicle: saline
[16] = dose: 50.0 mg/kg/injection, schedule: Q01DX005 (ip), vehicle: saline with Tween-80
[17] = dose: 100.0 mg/kg/injection, schedule: Q01DX005 (ip), vehicle: saline with Tween-80
[18] = dose: 12.5 mg/kg/injection, schedule: Q01DX009 (ip), vehicle: saline
[19] = dose: 25.0 mg/kg/injection, schedule: Q01DX009 (ip), vehicle: saline
[20] = dose: 12.5 mg/kg/injection, schedule: Q01DX009 (ip), vehicle: Klucel (hydroxypropylcellulose) (HPC)
[21] = dose: 50.0 mg/kg/injection, schedule: Q01DX009 (ip), vehicle: Klucel (hydroxypropylcellulose) (HPC)

In the case of `C=CCN1C(=O)[N+](C)(C)N=C1[O-]`, the T/C [1] was 106 % of control, the T/C [2] was 106 % of control and the T/C (dose: 400.0 mg/kg/injection, schedule: Q04DX003 (ip), vehicle: saline) was 101 % of control.
`Cc1nn(C(=S)S)c(C)c1N=Nc1ccc([N+](=O)[O-])cc1` was tested, and the T/C [3] was 94 % of control, the T/C [4] was 104 % of control and the T/C [5] was 108 % of control.
In the case of `Cc1cc(C)nc(NS(=O)(=O)c2ccc(N=NC3=C(O)C(c4ccccc4)N(c4ccccc4)C3=O)cc2)n1` (stereo not drawn), the T/C [6] was 93 % of control and the T/C (dose: 120.0 mg/kg/injection, schedule: Q01DX005 (ip), vehicle: saline) was 86 % of control.
In the case of `Cc1ccc(S(=O)(=O)N(CCCc2c(C)nc(N)[nH]c2=O)Cc2ccc([N+](=O)[O-])cc2)cc1`, the T/C [7] was 88 % of control, the T/C [8] was 86 % of control and the T/C [9] was 87 % of control.
For `CCCc1c(C(=O)OCCCN(CC)CC)c(C(=O)OCCCN(CC)CC)c(CCC)n1-c1ccccc1`, the T/C (dose: 25.0 mg/kg/injection, schedule: Q01DX005 (ip), vehicle: saline) was 105 % of control.
In the case of `COC(=O)c1nc(N)nc(C(=O)OC)c1C(=O)c1ccc([N+](=O)[O-])cc1`, the T/C [10] was 105 % of control and the T/C [11] was 97 % of control.
In the case of `S=C(S)N1CCOCC1`, the T/C (dose: 50.0 mg/kg/injection, schedule: Q04DX003 (ip), vehicle: saline) was 100 % of control, the T/C [1] was 100 % of control and the T/C [2] was 100 % of control.
`O=C(CNC(=O)C(CO)NC(=O)OCc1ccccc1)NCC(=O)OCc1ccccc1` (stereo not drawn) (Cbz-[ξS]-Gly-Gly-OBn) was tested, and the T/C [4] was 101 % of control, the T/C [5] was 99 % of control and the T/C (dose: 200.0 mg/kg/injection, schedule: Q01DX005 (ip), vehicle: Klucel (hydroxypropylcellulose) (HPC)) was 97 % of control.
For `O=c1c2nccnc2nc2n1CCS2`, the T/C (dose: 100.0 mg/kg/injection, schedule: Q04DX003 (ip), vehicle: Klucel (hydroxypropylcellulose) (HPC)) was 100 % of control, the T/C (dose: 200.0 mg/kg/injection, schedule: Q04DX003 (ip), vehicle: Klucel (hydroxypropylcellulose) (HPC)) was 101 % of control and the T/C (dose: 400.0 mg/kg/injection, schedule: Q04DX003 (ip), vehicle: Klucel (hydroxypropylcellulose) (HPC)) was 107 % of control.
With `CCOC(=O)/C=C/N=[N+]=[N-]` the T/C [10] was 102 % of control, the T/C [11] was 105 % of control and the T/C [12] was 106 % of control.
`COC(=O)N[Si](C)(C)C` was tested, and the T/C [13] was 93 % of control, the T/C [14] was 98 % of control and the T/C [15] was 100 % of control.
With `COc1cccc2c1[C@@]1(C)C3C(=O)OC(C)(c4ccccc43)[C@@]1(C)C2=O` (stereo partly drawn) the T/C [10] was 108 % of control, the T/C [11] was 110 % of control and the T/C [12] was 103 % of control.
With `Nc1ccccc1SSc1ccccc1C(=O)O` the T/C [4] was 112 % of control and the T/C [5] was 112 % of control.
With `CCOc1cc2c(cc1C(CC)c1ccc(OCc3ccccc3)cc1)OCO2` (stereo not drawn) the T/C [4] was 92 % of control and the T/C [5] was 87 % of control.
`O=C1C2=C(Nc3ccccc3N2)OC1c1ccc(C2OC3=C(Nc4ccccc4N3)C2=O)cc1` (stereo not drawn) was tested, and the T/C [7] was 88 % of control, the T/C [8] was 88 % of control and the T/C [9] was 87 % of control.
With `O=c1[nH]nc(SCc2ccc(Cl)cc2Cl)c(=O)[nH]1` the T/C (dose: 6.25 mg/kg/injection, schedule: Q01DX005 (ip), vehicle: Klucel (hydroxypropylcellulose) (HPC)) was 100 % of control, the T/C (dose: 12.5 mg/kg/injection, schedule: Q01DX005 (ip), vehicle: Klucel (hydroxypropylcellulose) (HPC)) was 94 % of control and the T/C [3] was 86 % of control.
`COC(=O)c1c(-c2cc(OC)c(OC)cc2[N+](=O)[O-])cn(C)c1C` was tested, and the T/C [16] was 88 % of control and the T/C [17] was 86 % of control.
`Cn1c[n+](C)nn1` was tested, and the T/C [18] was 91 % of control, the T/C [19] was 97 % of control and the T/C [13] was 97 % of control.
With `O=C1CSC(c2ccccc2F)N1c1nncs1` (stereo not drawn) the T/C (dose: 30.0 mg/kg/injection, schedule: Q01DX005 (ip), vehicle: Klucel (hydroxypropylcellulose) (HPC)) was 100 % of control, the T/C [7] was 99 % of control and the T/C [8] was 100 % of control. The T/C [9] was 110 % of control.
For `O=C1NC(CO)C(=O)N2CCCC12` (stereo not drawn), the T/C [18] was 100 % of control, the T/C [19] was 99 % of control and the T/C [13] was 99 % of control.
With `Cc1cc(CSCCc2nc3ccccc3[nH]2)c(O)c(CSCCc2nc3ccccc3[nH]2)c1` the T/C [10] was 107 % of control, the T/C [11] was 93 % of control and the T/C [12] was 90 % of control.
With `CCOC(=O)Nc1cc(NC(C)/C(=N/O)c2ccccc2)c([N+](=O)[O-])c(N)n1` (stereo not drawn) the T/C [7] was 157 % of control and 176 % of control, the T/C [8] was 166 % of control and 186 % of control and the T/C [9] was 174 % of control and 180 % of control.
For `CCCCn1cnc2c(=S)nc(N)[nH]c21`, the T/C (dose: 25.0 mg/kg/injection, schedule: Q04DX003 (ip), vehicle: saline with Tween-80) was 109 % of control, the T/C (dose: 50.0 mg/kg/injection, schedule: Q04DX003 (ip), vehicle: saline with Tween-80) was 118 % of control and the T/C (dose: 400.0 mg/kg/injection, schedule: Q04DX003 (ip), vehicle: saline with Tween-80) was 90 % of control.
In the case of `C/C(=C/c1cc2c(cc1Br)OCO2)[N+](=O)[O-]`, the T/C (dose: 100.0 mg/kg/injection, schedule: Q04DX003 (ip), vehicle: saline with Tween-80) was 108 % of control and the T/C (dose: 200.0 mg/kg/injection, schedule: Q04DX003 (ip), vehicle: saline with Tween-80) was 118 % of control.
With `CN1N=C(c2ccccc2O)/C(=C/c2c(-c3ccccc3O)[nH]n(C)c2=O)C1=O` the T/C [10] was 94 % of control, the T/C [11] was 86 % of control and the T/C [12] was 87 % of control.
With `Cc1ccc2sc(-c3ccccc3)c(CCl)c(=O)c2c1` the T/C (dose: 100.0 mg/kg/injection, schedule: Q04DX002 (ip), vehicle: saline with Tween-80) was 102 % of control, the T/C (dose: 200.0 mg/kg/injection, schedule: Q04DX002 (ip), vehicle: saline with Tween-80) was 108 % of control and the T/C (dose: 400.0 mg/kg/injection, schedule: Q04DX002 (ip), vehicle: saline with Tween-80) was 108 % of control.
`CN(C)N=Nc1cccc(Cl)c1` was tested, and the T/C (dose: 6.25 mg/kg/injection, schedule: Q01DX009 (ip), vehicle: Klucel (hydroxypropylcellulose) (HPC)) was 95 % of control, the T/C [20] was 105 % of control and the T/C (dose: 12.5 mg/kg/injection, schedule: Q01DX009 (ip), vehicle: saline with Tween-80) was 100 % of control. For the same molecule, the T/C (dose: 25.0 mg/kg/injection, schedule: Q01DX009 (ip), vehicle: Klucel (hydroxypropylcellulose) (HPC)) was 98 % of control, the T/C (dose: 25.0 mg/kg/injection, schedule: Q01DX009 (ip), vehicle: saline + alcohol) was 107 % of control and the T/C (dose: 25.0 mg/kg/injection, schedule: Q01DX009 (ip), vehicle: saline with Tween-80) was 98 % of control. For the same molecule, the T/C [19] was 91 % of control, the T/C [21] was 100 % of control and the T/C (dose: 50.0 mg/kg/injection, schedule: Q01DX009 (ip), vehicle: saline + alcohol) was 120 % of control. For the same molecule, the T/C (dose: 50.0 mg/kg/injection, schedule: Q01DX009 (ip), vehicle: saline with Tween-80) was 107 % of control, the T/C [13] was 99 % of control and the T/C (dose: 100.0 mg/kg/injection, schedule: Q01DX009 (ip), vehicle: saline with Tween-80) was 105 % of control. For the same molecule, the T/C [14] was 97 % of control and the T/C [15] was 100 % of control.
For `CC(SCCCCCCCCCCCCSC(C)C(=O)O)C(=O)O` (stereo not drawn), the T/C [16] was 106 % of control, the T/C [17] was 97 % of control and the T/C (dose: 200.0 mg/kg/injection, schedule: Q01DX005 (ip), vehicle: saline with Tween-80) was 100 % of control.
`CCC[P+](C)(CCC#N)c1ccccc1` (stereo not drawn) was tested, and the T/C [20] was 108 % of control.
With `CCOC(=O)CSc1nnc(-c2cc(OC)c(OCC)c(OC)c2)o1` the T/C (dose: 62.5 mg/kg/injection, schedule: Q01DX001 (ip), vehicle: Klucel (hydroxypropylcellulose) (HPC)) was 102 % of control, the T/C (dose: 125.0 mg/kg/injection, schedule: Q01DX001 (ip), vehicle: Klucel (hydroxypropylcellulose) (HPC)) was 102 % of control and the T/C (dose: 250.0 mg/kg/injection, schedule: Q01DX001 (ip), vehicle: Klucel (hydroxypropylcellulose) (HPC)) was 100 % of control.
In the case of `O=C(c1ccccc1)C12CCC3CC(CC(C3)C1)C2`, the T/C [21] was 100 % of control, the T/C (dose: 100.0 mg/kg/injection, schedule: Q01DX009 (ip), vehicle: Klucel (hydroxypropylcellulose) (HPC)) was 99 % of control and the T/C (dose: 200.0 mg/kg/injection, schedule: Q01DX009 (ip), vehicle: Klucel (hydroxypropylcellulose) (HPC)) was 100 % of control.
For `CC(C)Oc1nc(N2CCNCC2)nc2c1CCC2`, the T/C (dose: 15.0 mg/kg/injection, schedule: Q01DX005 (ip), vehicle: saline) was 101 % of control, the T/C (dose: 30.0 mg/kg/injection, schedule: Q01DX005 (ip), vehicle: saline) was 94 % of control and the T/C [6] was 101 % of control.

From PubChem BioAssay AID330 (DTP/NCI, 2004)
